Reference: patent US10941158B2, “Pyrazole ACC inhibitors and uses thereof” (Gilead Apollo, LLC, priority 2015, dated 2021)
≈ marks a conversion by molar mass, not a printed value. Where two headings read alike, the source gives them in different places.

Assays:
human (hACC2) ACC2 = human (hACC2) ACC2 (Homo sapiens, UniProt O00763); assay: In vitro Acetyl-CoA Carboxylase (ACC) inhibition assay (ADP-Glo), hACC2; assay type: biochemical
Protocol: The detailed procedure is as follows. […] 10 μL ADP glo reagent was added. […] 20 μL kinase detection reagent was added.
“NA” stands for “not assayed.”

C. albicans ATCC 90028 = assay: Anti-Fungal (Candida) Activity Assay, broth microtiter MIC; assay type: cell-based; conditions: read-out: MIC C. albicans ATCC 90028
Summary of the method: (§1)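 Following CLSI M27-A3 broth microdilution, direct colony suspensions in RPMI 1640+MOPS were challenged with compounds. MICs were read visually against the growth control after 48 h.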

C. krusei ATCC 6258 = assay: as above; assay type: cell-based; conditions: Pichia kudriavzevii, read-out: MIC C. krusei ATCC 6258
Summary of the method: as §1

[1] = tested on: C. parapsilosis ATCC 22019; assay: as above; assay type: cell-based; conditions: Lodderomyces parapsilosis, read-out: MIC C. parapsilosis ATCC 22019
Summary of the method: as §1

Botrtyis cinerea (Bc) = assay: Growth inhibition assay of fungal pathogens; assay type: cell-based; conditions: 48 h, read-out: Concentration at 90% Inhibition Bc
Summary of the method: (§2)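 Compounds in DMSO tested at final 50, 10, 2 ppm or 2, 0.4, 0.08 ppm. Spores in 17% V8 medium, or 1.5 mm mycelial plugs in ¼ PDB for R. solani, incubated with compound. OD600 and visual ratings at 48 h versus 2% DMSO control gave percent growth inhibition.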

[2] = tested on: Collectotrichum graminicola (Cg); assay: Growth inhibition assay of fungal pathogens; assay type: cell-based; conditions: 48 h, read-out: Concentration at 90% Inhibition Cg
Summary of the method: as §2

Diplodia maydis (Dm) = assay: Growth inhibition assay of fungal pathogens; assay type: cell-based; conditions: Stenocarpella maydis, 48 h, read-out: Concentration at 90% Inhibition Dm
Summary of the method: as §2

[3] = tested on: Fusarium moniliforme (Fm); assay: Growth inhibition assay of fungal pathogens; assay type: cell-based; conditions: for IC90: Fusarium verticillioides, 48 h, read-out: Concentration at 90% Inhibition Fm
Summary of the method: as §2

[4] = tested on: Fusarium virguliforme (Fv); assay: Growth inhibition assay of fungal pathogens; assay type: cell-based; conditions: 48 h
Summary of the method: as §2

[5] = tested on: Phytophthora capsici (Pc); assay: Growth inhibition assay of fungal pathogens; assay type: cell-based; conditions: for IC90: Phytophthora capsici, read-out: Concentration at 90% Inhibition Pc
Summary of the method: as §2

Rhizoctonia solani (Rs) = assay: Growth inhibition assay of fungal pathogens; assay type: cell-based; conditions: 48 h, read-out: Concentration at 90% Inhibition Rs
Summary of the method: as §2

Septoria tritici (St) = assay: Growth inhibition assay of fungal pathogens; assay type: cell-based; conditions: for IC90: Zymoseptoria tritici, read-out: Concentration at 90% Inhibition St
Summary of the method: as §2

fungal (fACC2) ACC2 = fungal (fACC2) ACC2 (UniProt Q00955); conditions: read-out: fACC2 IC50; fungal ACC2, ADP-Glo
Protocol: An exemplary procedure for the in vitro ACC inhibition assay, which can be used to determine the inhibitory action of compounds of the invention toward either human (hACC2) or fungal (fACC2) ACC2, follows. The ADP-Glo™ Kinase Assay kit from Promega was used. The ADP-Glo™ Kinase Assay is a luminescent ADP detection assay to measure enzymatic activity by quantifying the amount of ADP produced during an enzyme reaction. The assay is performed in two steps; first, after the enzyme reaction, an equal volume of ADP-Glo™ Reagent is added to terminate the reaction and deplete the remaining ATP. Second, the Kinase Detection Reagent is added to simultaneously convert ADP to ATP and allow the newly synthesized ATP to be measured using a luciferase/luciferin reaction. Luminescence can be correlated to ADP concentrations by using an ATP-to-ADP conversion curve. The detailed procedure is as follows. 50 μL of the compound being tested (600 μM in DMSO) was added to a 384-well dilution plate. The compound was diluted 1:3 in succession in DMSO for each row for 11 wells. 0.5 μL ACC2 working solution was added to 384-well white Optiplate assay plate. 0.5 μL diluted compound solution in each column from step 2 was added to assay plate, each row containing 2 replicates. […] The plates were incubated at room temperature for 15 minutes. 5 μL substrate working solution was added to each well to initiate reaction. Final ACC2 reaction concentrations consist of: 5 nM ACC2, 20 μM ATP, 20 μM acetyl-CoA, 12 mM NaHCO3, 0.01% Brij35, 2 mM DTT, 5% DMSO, test compound concentrations: 30 μM, 10 μM, 3.33 μM, 1.11 μM, 0.37 μM, 0.123 μM, 0.0411 μM, 0.0137 μM, 0.00457 μM, 0.00152 μM, and 0.00051 μM. Plates were incubated at room temperature for 60 minutes. 10 μL ADP glo reagent was added. Plates were incubated at room temperature for 40 minutes. 20 μL kinase detection reagent was added. Plates were incubated at room temperature for 40 minutes, and then read on a Perkin Elmer EnVision 2104 plate reader for luminescence as Relative Light Units (RLU).
Data for each concentration, as well as the positive and negative controls were averaged, and the standard deviation calculated. Percent inhibition was calculated by the formula: 100×(average negative control−compound)/(average negative control−average positive control). The IC50 for each compound was calculated by fitting the data with a non-linear regression equation: Y=Bottom+(Top-Bottom)/(1+10^((Log IC50−X)*Hill Slope)), where X is the log of compound concentration and Y is percent inhibition.
Compounds having an activity designated as “AA” provided an IC50 0.0006-0.003 μM; provided an “A” provided an IC50 0.003-0.01 μM; compounds having an activity designated as “B” provided an IC50 0.01-0.04 μM; and compounds having an activity designated as “C” provided an IC50>0.04 μM IC50. “NA” stands for “not assayed.”

[6] = ATCC90028, 3 replicates, MIC recorded at 48 h
[7] = ATCC6258, 3 replicates, MIC recorded at 48 h
[8] = ATCC22019, 3 replicates, MIC recorded at 48 h
[9] = Table 4a, 48 hours, read-out: Concentration at 90% Inhibition Fv
[10] = Table 4b, 48 hours, read-out: Concentration at 90% Inhibition Fv
[11] = read-out: Concentration at 90% Inhibition Fv, Table 4a, 48 hours
[12] = read-out: Concentration at 90% Inhibition Fv, Table 4b, 48 hours

Chain of fungal (fACC2) ACC2 (Q00955 whole entry): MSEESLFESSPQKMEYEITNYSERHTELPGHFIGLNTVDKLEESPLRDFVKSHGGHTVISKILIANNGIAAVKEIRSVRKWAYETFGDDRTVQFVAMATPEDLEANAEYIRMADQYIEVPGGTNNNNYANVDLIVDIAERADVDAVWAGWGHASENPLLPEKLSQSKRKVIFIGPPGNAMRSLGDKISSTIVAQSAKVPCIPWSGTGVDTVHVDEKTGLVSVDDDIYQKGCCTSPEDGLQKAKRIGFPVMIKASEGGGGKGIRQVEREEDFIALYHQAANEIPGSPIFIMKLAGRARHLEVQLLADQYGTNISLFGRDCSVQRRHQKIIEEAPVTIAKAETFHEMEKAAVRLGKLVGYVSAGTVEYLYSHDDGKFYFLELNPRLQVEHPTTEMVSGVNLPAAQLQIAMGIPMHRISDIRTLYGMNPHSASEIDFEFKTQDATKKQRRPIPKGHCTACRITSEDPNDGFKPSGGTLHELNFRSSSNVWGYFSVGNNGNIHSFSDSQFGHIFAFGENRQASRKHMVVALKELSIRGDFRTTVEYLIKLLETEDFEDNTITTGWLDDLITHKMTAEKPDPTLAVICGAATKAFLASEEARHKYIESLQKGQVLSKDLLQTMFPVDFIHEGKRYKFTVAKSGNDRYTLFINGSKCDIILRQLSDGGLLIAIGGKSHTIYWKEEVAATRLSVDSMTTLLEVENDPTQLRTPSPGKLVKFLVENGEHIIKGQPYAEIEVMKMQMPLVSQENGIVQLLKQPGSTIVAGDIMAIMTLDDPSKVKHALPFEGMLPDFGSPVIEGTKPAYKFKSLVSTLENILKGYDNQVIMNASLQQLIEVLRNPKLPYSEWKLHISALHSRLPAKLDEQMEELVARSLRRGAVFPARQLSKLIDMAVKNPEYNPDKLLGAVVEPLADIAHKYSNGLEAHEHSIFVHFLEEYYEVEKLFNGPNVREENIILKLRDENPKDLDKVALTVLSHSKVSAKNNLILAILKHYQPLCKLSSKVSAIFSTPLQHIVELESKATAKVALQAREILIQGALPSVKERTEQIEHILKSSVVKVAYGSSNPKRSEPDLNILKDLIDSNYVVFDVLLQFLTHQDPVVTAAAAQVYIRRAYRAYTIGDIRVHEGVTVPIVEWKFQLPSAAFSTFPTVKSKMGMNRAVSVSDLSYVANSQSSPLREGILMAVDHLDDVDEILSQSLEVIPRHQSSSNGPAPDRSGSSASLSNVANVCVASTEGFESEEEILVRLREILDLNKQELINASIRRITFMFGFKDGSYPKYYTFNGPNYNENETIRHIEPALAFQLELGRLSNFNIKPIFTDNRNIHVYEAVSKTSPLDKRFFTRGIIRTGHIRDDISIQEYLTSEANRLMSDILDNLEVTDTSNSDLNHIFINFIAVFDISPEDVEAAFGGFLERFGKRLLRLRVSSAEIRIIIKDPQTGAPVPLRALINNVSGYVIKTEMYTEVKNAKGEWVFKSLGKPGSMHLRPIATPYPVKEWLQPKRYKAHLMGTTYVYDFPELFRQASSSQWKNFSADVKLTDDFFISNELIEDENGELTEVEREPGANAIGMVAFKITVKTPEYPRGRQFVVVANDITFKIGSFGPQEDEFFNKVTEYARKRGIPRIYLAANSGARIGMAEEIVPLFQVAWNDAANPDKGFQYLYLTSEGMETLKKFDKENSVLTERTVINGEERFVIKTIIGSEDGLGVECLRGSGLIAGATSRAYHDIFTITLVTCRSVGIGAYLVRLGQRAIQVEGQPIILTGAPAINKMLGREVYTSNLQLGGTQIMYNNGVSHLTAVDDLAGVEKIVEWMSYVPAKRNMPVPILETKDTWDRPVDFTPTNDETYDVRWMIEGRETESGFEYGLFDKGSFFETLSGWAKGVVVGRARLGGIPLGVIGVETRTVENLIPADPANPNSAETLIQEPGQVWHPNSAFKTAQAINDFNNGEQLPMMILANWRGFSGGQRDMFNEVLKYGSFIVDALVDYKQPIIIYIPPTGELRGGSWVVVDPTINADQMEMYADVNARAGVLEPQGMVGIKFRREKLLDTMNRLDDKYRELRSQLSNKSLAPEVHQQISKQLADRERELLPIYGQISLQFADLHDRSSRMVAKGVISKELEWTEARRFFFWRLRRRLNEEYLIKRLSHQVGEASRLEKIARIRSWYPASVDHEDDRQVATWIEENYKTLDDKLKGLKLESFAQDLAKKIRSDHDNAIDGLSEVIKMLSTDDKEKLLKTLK
Chain of human (hACC2) ACC2 (O00763 whole entry): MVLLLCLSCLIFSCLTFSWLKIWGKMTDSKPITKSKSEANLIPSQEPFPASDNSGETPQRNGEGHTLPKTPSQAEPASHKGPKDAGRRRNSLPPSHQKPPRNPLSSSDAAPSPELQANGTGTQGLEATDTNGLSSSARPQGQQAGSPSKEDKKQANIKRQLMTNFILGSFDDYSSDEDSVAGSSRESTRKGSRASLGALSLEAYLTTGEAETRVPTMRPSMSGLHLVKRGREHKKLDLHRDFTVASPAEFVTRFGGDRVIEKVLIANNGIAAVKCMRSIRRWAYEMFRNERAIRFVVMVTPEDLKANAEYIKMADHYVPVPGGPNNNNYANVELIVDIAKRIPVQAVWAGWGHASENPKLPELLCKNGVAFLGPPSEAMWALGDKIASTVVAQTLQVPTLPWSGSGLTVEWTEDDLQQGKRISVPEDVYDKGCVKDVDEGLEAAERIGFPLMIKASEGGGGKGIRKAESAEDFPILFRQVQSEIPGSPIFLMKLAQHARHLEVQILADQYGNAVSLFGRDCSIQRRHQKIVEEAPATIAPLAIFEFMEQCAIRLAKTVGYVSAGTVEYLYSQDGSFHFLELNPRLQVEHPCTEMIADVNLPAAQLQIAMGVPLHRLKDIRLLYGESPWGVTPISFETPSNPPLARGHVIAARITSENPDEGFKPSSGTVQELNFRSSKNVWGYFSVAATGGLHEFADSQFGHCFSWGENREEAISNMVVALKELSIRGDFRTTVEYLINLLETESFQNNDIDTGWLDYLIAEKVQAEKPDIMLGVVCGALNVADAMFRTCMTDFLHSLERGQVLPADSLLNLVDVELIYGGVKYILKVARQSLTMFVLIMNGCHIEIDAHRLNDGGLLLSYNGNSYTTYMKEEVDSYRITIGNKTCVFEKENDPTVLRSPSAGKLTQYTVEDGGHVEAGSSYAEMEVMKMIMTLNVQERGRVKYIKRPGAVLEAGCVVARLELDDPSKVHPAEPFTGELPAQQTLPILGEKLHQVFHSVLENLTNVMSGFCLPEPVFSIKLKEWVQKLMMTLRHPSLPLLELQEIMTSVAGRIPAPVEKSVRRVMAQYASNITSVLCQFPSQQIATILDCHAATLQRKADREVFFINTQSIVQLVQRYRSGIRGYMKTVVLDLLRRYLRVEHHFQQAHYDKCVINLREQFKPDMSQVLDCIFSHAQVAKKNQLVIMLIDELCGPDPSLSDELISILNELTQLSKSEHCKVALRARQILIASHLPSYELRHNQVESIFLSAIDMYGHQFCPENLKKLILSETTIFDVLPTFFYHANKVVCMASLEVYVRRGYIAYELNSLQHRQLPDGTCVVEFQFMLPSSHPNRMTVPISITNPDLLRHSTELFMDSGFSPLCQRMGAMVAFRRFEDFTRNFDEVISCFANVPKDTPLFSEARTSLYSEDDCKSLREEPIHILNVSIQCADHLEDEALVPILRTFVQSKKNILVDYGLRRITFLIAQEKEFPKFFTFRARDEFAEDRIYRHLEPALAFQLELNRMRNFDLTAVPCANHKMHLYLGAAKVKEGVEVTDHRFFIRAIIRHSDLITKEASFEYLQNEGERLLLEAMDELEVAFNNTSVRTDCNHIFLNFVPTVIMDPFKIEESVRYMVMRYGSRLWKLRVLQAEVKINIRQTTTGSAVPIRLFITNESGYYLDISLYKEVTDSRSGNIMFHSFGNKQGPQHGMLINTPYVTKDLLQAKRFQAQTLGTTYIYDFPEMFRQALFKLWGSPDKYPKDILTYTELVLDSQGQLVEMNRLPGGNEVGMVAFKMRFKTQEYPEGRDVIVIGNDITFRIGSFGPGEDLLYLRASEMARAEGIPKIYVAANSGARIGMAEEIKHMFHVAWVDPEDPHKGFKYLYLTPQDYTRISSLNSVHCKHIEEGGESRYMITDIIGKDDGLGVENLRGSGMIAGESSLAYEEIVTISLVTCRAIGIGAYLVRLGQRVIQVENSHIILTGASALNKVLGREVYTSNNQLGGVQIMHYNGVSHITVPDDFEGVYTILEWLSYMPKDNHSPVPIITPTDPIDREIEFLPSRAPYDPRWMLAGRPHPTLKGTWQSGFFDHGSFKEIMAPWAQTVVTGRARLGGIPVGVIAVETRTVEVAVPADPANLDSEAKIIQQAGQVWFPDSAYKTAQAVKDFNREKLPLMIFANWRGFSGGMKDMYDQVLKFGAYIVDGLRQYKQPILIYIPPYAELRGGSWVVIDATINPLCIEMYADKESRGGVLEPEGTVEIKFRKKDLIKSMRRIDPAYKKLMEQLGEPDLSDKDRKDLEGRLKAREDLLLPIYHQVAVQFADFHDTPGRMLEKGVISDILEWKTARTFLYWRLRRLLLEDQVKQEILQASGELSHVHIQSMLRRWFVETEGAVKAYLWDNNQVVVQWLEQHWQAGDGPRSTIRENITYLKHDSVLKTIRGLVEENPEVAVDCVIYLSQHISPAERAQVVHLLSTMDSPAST

Structure (SMILES) | IC50 (human (hACC2) ACC2) [nM] | MIC (C. albicans ATCC 90028; [6]) [µg/mL] | MIC (C. krusei ATCC 6258; [7]) [µg/mL] | MIC [1, 8] [µg/mL] | IC90 (Botrtyis cinerea (Bc); Table 4a) [µg/mL] | IC90 (Botrtyis cinerea (Bc); Table 4b) [µg/mL] | IC90 ([2]; Table 4a) [µg/mL] | IC90 ([2]; Table 4b) [µg/mL] | IC90 (Diplodia maydis (Dm); Table 4a) [µg/mL] | IC90 (Diplodia maydis (Dm); Table 4b) [µg/mL] | IC90 ([3]; Table 4a, 48 hours) [µg/mL] | IC90 ([3]; Table 4b, 48 hours) [µg/mL] | IC90 [4, 9] [µg/mL] | IC90 [4, 10] [µg/mL] | IC90 ([5]; Table 4a, 48 hours) [µg/mL] | Concentration at 90% Inhibition Pc ([5]; Table 4b, 48 hours) | IC90 (Rhizoctonia solani (Rs); Table 4a) [µg/mL] | IC90 (Rhizoctonia solani (Rs); Table 4b) [µg/mL] | Concentration at 90% Inhibition St (Septoria tritici (St); Table 4b, 48 hours) | IC50 (fungal (fACC2) ACC2) [nM] | also measured
COc1ccc(F)cc1[C@H](Cn1c(=O)n(CC(=O)N2CCCC2)c(=O)c2c(C)c(-n3cccn3)sc21)OC(C)C [Compound I-28, (R)-1-(2-(5-fluoro-2-methoxyphenyl)-2-isopropoxyethyl)-5-methyl-3-(2-oxo-2-(pyrrolidin-1-yl)ethyl)-6-(1H-pyrazol-1-yl)thieno[2,3-d]pyrimidine-2,4(1H,3H)-dione] | 10 to 40 | 0.25 to 1 (≈ 0.439 to 1.76 µM) | 0.25 to 1 (≈ 0.439 to 1.76 µM) | 0.25 to 1 (≈ 0.439 to 1.76 µM) | 2 (≈ 3.51 µM) | 2 (≈ 3.51 µM) | > 50 | 10 (≈ 17.6 µM) | > 50 | > 50 | 0.4 (≈ 0.702 µM) | 0.4 (≈ 0.702 µM) | 2 (≈ 3.51 µM) | 2 (≈ 3.51 µM) | > 50 | D (“D” provided a compound concentration of >50 ppm at 90% inhibition of fungal pathogens) | 10 (≈ 17.6 µM) | 2 (≈ 3.51 µM) | D (“D” provided a compound concentration of >50 ppm at 90% inhibition of fungal pathogens) | 0.6 to 3 | IC90 (Septoria tritici (St); Table 4a, 48 hours): > 50 µg/mL
COc1ccc(F)cc1[C@H](Cn1c(=O)n(C(C)C(=O)NC(C)C)c(=O)c2c(C)c(-n3cccn3)sc21)OC(C)C (stereo partly drawn) [Compound I-29, 2-(1-((R)-2-(5-fluoro-2-methoxyphenyl)-2-isopropoxy-ethyl)-5-methyl-2,4-dioxo-6-(1H-pyrazol-1-yl)-1,4-dihydrothieno[2,3-d]pyrimidin-3(2H)-yl)-N-isopropylpropanamide] | 10 to 40 |  |  |  | 2 (≈ 3.5 µM) | 2 (≈ 3.5 µM) | 2 (≈ 3.5 µM) | 2 (≈ 3.5 µM) | 2 (≈ 3.5 µM) | 2 (≈ 3.5 µM) |  |  |  |  |  |  | 2 (≈ 3.5 µM) | 2 (≈ 3.5 µM) |  | 0.6 to 3 | MIC (C. albicans ATCC 90028; ATCC90028, 48 h): 1.1 to 2 µg/mL (≈ 1.92 to 3.5 µM); MIC (C. krusei ATCC 6258; ATCC6258, 48 h): 2.1 to 4 µg/mL (≈ 3.67 to 7 µM); MIC ([1]; ATCC22019, 48 h): > 4.1 µg/mL; IC90 [3]: 0.4 µg/mL (≈ 0.7 µM); Concentration at 90% Inhibition Fm ([3]; Table 4b, 48 hours): A (“A” provided a compound concentration of 0.4 ppm at 90% inhibition of fungal pathogens); IC90 [4, 11]: 2 µg/mL (≈ 3.5 µM); IC90 [4, 12]: 2 µg/mL (≈ 3.5 µM); IC90 ([5]; 48 h, Table 4a): > 50 µg/mL; IC90 ([5]; 48 h, Table 4b): > 50 µg/mL; IC90 (Septoria tritici (St); 48 h, Table 4a): > 50 µg/mL; IC90 (Septoria tritici (St); 48 h, Table 4b): > 50 µg/mL
COc1ccc(F)cc1[C@H](Cn1c(=O)n([C@H](C)C(=O)NC(C)C)c(=O)c2c(C)c(-n3cccn3)sc21)OC(C)C [Compound I-30, (R)-2-(1-((R)-2-(5-fluoro-2-methoxyphenyl)-2-isopropoxyethyl)-5-methyl-2,4-dioxo-6-(1H-pyrazol-1-yl)-1,4-dihydrothieno[2,3-d]pyrimidin-3(2H)-yl)-N-isopropylpropanamide] | 3 to 10 |  |  |  | 2 (≈ 3.5 µM) | 2 (≈ 3.5 µM) | 2 (≈ 3.5 µM) | 2 (≈ 3.5 µM) | 2 (≈ 3.5 µM) | 2 (≈ 3.5 µM) |  |  |  |  |  |  | 2 (≈ 3.5 µM) | 2 (≈ 3.5 µM) |  | 0.6 to 3 | MIC (C. albicans ATCC 90028; ATCC90028, 48 h): 0.25 to 1 µg/mL (≈ 0.437 to 1.75 µM); MIC (C. krusei ATCC 6258; ATCC6258, 48 h): 0.25 to 1 µg/mL (≈ 0.437 to 1.75 µM); MIC ([1]; ATCC22019, 48 h): 0.25 to 1 µg/mL (≈ 0.437 to 1.75 µM); IC90 [3]: 0.4 µg/mL (≈ 0.7 µM); Concentration at 90% Inhibition Fm ([3]; Table 4b, 48 hours): A (“A” provided a compound concentration of 0.4 ppm at 90% inhibition of fungal pathogens); IC90 [4, 11]: 0.4 µg/mL (≈ 0.7 µM); IC90 [4, 12]: 0.4 µg/mL (≈ 0.7 µM); IC90 ([5]; 48 h, Table 4a): > 50 µg/mL; IC90 ([5]; 48 h, Table 4b): > 50 µg/mL; IC90 (Septoria tritici (St); 48 h, Table 4a): > 50 µg/mL; IC90 (Septoria tritici (St); 48 h, Table 4b): > 50 µg/mL
COc1ccc(F)cc1[C@H](Cn1c(=O)n([C@@H](C)C(=O)N2CCCC2)c(=O)c2c(C)c(-n3cccn3)sc21)OC(C)C [Compound I-31, 1-((R)-2-(5-fluoro-2-methoxyphenyl)-2-isopropoxyethyl)-5-methyl-3-((S)-1-oxo-1-(pyrrolidin-1-yl)propan-2-yl)-6-(1H-pyrazol-1-yl)thieno[2,3-d]pyrimidine-2,4(1H,3H)-dione] | 3 to 10 | 1.1 to 2 (≈ 1.88 to 3.43 µM) | 2.1 to 4 (≈ 3.6 to 6.85 µM) | 2.1 to 4 (≈ 3.6 to 6.85 µM) | 0.4 (≈ 0.685 µM) | 0.4 (≈ 0.685 µM) | 0.4 (≈ 0.685 µM) | 0.4 (≈ 0.685 µM) | 0.4 (≈ 0.685 µM) | 0.4 (≈ 0.685 µM) | 0.08 (≈ 0.137 µM) | 0.08 (≈ 0.137 µM) | 0.4 (≈ 0.685 µM) | 0.4 (≈ 0.685 µM) | > 50 | D (“D” provided a compound concentration of >50 ppm at 90% inhibition of fungal pathogens) | 2 (≈ 3.43 µM) | 2 (≈ 3.43 µM) | D (“D” provided a compound concentration of >50 ppm at 90% inhibition of fungal pathogens) | 0.6 to 3 | IC90 (Septoria tritici (St); Table 4a, 48 hours): > 50 µg/mL
COc1ccc(F)cc1[C@H](Cn1c(=O)n(C(C)C(=O)N2CCCC2)c(=O)c2c(C)c(-n3cccn3)sc21)OC(C)C (stereo partly drawn) [Compound I-32, 1-((R)-2-(5-fluoro-2-methoxyphenyl)-2-isopropoxyethyl)-5-methyl-3-(1-oxo-1-(pyrrolidin-1-yl)propan-2-yl)-6-(1H-pyrazol-1-yl)thieno[2,3-d]pyrimidine-2,4(1H,3H)-dione] | 3 to 10 | 2.1 to 4 (≈ 3.6 to 6.85 µM) | 2.1 to 4 (≈ 3.6 to 6.85 µM) | > 4.1 | 0.4 (≈ 0.685 µM) | 0.4 (≈ 0.685 µM) | 0.4 (≈ 0.685 µM) | 0.4 (≈ 0.685 µM) | 2 (≈ 3.43 µM) | 2 (≈ 3.43 µM) | 0.08 (≈ 0.137 µM) | 0.08 (≈ 0.137 µM) | 0.4 (≈ 0.685 µM) | 0.4 (≈ 0.685 µM) | > 50 | D (“D” provided a compound concentration of >50 ppm at 90% inhibition of fungal pathogens) | 2 (≈ 3.43 µM) | 2 (≈ 3.43 µM) | D (“D” provided a compound concentration of >50 ppm at 90% inhibition of fungal pathogens) | 0.6 to 3 | IC90 (Septoria tritici (St); Table 4a, 48 hours): > 50 µg/mL
CCO[C@@H](Cn1c(=O)n(C(C)(C)C(=O)NC(C)C)c(=O)c2c(C)c(-n3cccn3)sc21)c1cc(F)ccc1OC [Compound I-33, (R)-2-(1-(2-ethoxy-2-(5-fluoro-2-methoxyphenyl)ethyl)-5-methyl-2,4-dioxo-6-(1H-pyrazol-1-yl)-1,4-dihydrothieno[2,3-d]pyrimidin-3(2H)-yl)-N-isopropyl-2-methylpropanamide] | 10 to 40 |  |  |  | 2 (≈ 3.5 µM) | 2 (≈ 3.5 µM) | 10 (≈ 17.5 µM) | 2 (≈ 3.5 µM) | > 50 | > 50 |  |  |  |  |  |  | 10 (≈ 17.5 µM) | 2 (≈ 3.5 µM) |  | 0.6 to 3 | MIC (C. albicans ATCC 90028; ATCC90028, 48 h): > 4.1 µg/mL; MIC (C. krusei ATCC 6258; ATCC6258, 48 h): > 4.1 µg/mL; MIC ([1]; ATCC22019, 48 h): > 4.1 µg/mL; IC90 [3]: 0.4 µg/mL (≈ 0.7 µM); Concentration at 90% Inhibition Fm ([3]; Table 4b, 48 hours): A (“A” provided a compound concentration of 0.4 ppm at 90% inhibition of fungal pathogens); IC90 [4, 11]: 0.4 µg/mL (≈ 0.7 µM); IC90 [4, 12]: 0.4 µg/mL (≈ 0.7 µM); IC90 ([5]; 48 h, Table 4a): > 50 µg/mL; IC90 ([5]; 48 h, Table 4b): > 50 µg/mL; IC90 (Septoria tritici (St); 48 h, Table 4a): > 50 µg/mL; IC90 (Septoria tritici (St); 48 h, Table 4b): > 50 µg/mL
